According to patent publication US4742069A, “Sulfonamide containing dihydropyridine derivatives, intermediates and medicinal use” (Hoffmann-La Roche Inc., priority 1984, dated 1988):
pIC50: −log10 of the molar value.

Experiments:
[1] = tested on: ^3 H-nifedipine (or ^3 H-nitrendipine) binding, rabbit or guinea pig heart membranes; assay: 3H-Nifedipine binding determinations; conditions: for A: % max. inhib. (maximum inhibition of specific binding): reference compound nifedipine established as 100%
Method: A. ^3 H-Nifedipine binding determinations:
The determination is carried out on homogenates or on partially-cleaned membranes of rabbit or guinea pig heart. The reaction mixture (0.3 ml) consists of 0.2-0.8 mg of membrane protein, 1 nM of ^3 H-nifedipine (or 0.25 nM of ^3 H-nitrendipine) and various concentrations of the test substances. The incubation lasts 30 minutes at 25° C. or 37° C. and is stopped by dilution with the incubation buffer; a filtration is subsequently carried out. The filter-bound radioactivity is measured with a scintillation counter. Specific binding (i.e. receptor-bound) is defined as the difference between total and unspecific-bound radioactivity. The unspecific binding is determined in the presence of an excess of non-radioactive nifedipine (1 μM).
The activity (potency) of a compound in this test is defined by the IC50 and % maximum inhibition values (% max. inhibition). The IC50 is the substance concentration (in mol/l) which produces a half-maximum inhibition of the specific ^3 H-nifedipine (or ^3 H-nitrendipine) binding. In the table compound A has an IC50 in mol/l, of 3.0.10^-8 which means 3.0×10^-8. The maximum inhibition of the specific binding is given by the % maximum inhibition value; this value is established as 100% for the reference compound nifedipine. Both parameters are extrapolated from a concentration-binding curve.

[2] = tested on: KCl contracture of coronary artery strips of dogs (tension-dependent calcium channel); assay: Coronary artery strips of dogs, relaxation of KCl contracture; type: cell-based, dog; conditions: Canis lupus familiaris; KCl 84.7 mM, 37° C.; read-out: B: IC50 (half-maximum relaxation of KCl contracture)
Method: B. Coronary artery strips of dogs:
In this experiment spiral strips (2-2.5 mm wide and 10 mm long) of coronary arteries of dogs are cut and hung up in an organ chamber under an initial tension of 1.5 g. These strips are pre-incubated for a duration of about 1 to 2 hours in Krebs-Henseleit buffer solution which is gassed with Oxycarbon (a mixture of 95% oxygen and 5% carbon dioxide) at 37° C. The relaxing activity of one of these substances is subsequently tested on a KCl (84.7 mM) contracture by the addition of increasing concentrations of the test substance to the organ chamber. The calcium channel-blocking activity of the test substances can therefore be established, as the KCl contracture occurs exclusively by means of calcium flow through the tension-dependent calcium channel.
The activity of a test substance in this test is given by the IC50 value. This value is defined as the substance concentration (in mol/l) which produces a half-maximum relaxation of a KCl contracture. This value is also extrapolated from the resulting concentration-activity curve.

narcotized dog = assay: Hemodynamic parameters in the narcotized dog; type: in vivo
Description: C. Hemodynamic parameters in the narcotized dog:
The 4 most important measurement parameters (with respective measurement units) of the hemodynamic experiment are: (1) CBF: Coronary Blood Flow (in ml/min)--the velocity of blood flow through the coronary arteries; (2) HR: heart rate (in beats/min)--the heart frequency; (3) BP: blood pressure (in mm Hg); and (4) dp/dt: rate of increase in left ventricular pressure (in mm Hg/sec) as a measurement of the contractility force of the heart. The values are given as the % maximum variation from the initial value (Δ%) and the duration in minutes of this variation (t) per dosage administered.
There is thus obtained not only an overall picture of the activity of the substance, but also an estimation as to the potential selectivity for a specific part of the circulatory system in the entire organism. After the administration of an anesthetic, the dog is intubated and respired artificially. Blood pH, pCO2, pO2 and hemoglobin are measured hourly with a blood-gas analyzer. The blood pressure (systolic and diastolic) is measured with a probe in the aorta abdominalis. The heart frequency is recorded by means of a tachometer, which is disengaged from the pressure pulse. For the other measurements the heart must first be opened in order that a probe can be inserted in the left ventricle (heart chamber) for the pressure measurements (dp/dt). The coronary blood flow is measured with a flowing probe in the left coronary artery (descendens).
This allows the prediction that they are useful as agents in the control or prevention of angina pectoris, ischemia, high blood pressure and migraine.

Row | A: % max. inhib. (maximum inhibition of specific binding) [1] [%] | pIC50 [2] | pIC50 ([1]; read-out: IC50 (half-maximum inhibition of specific 3H-nifedipine binding), as repeated in the text) | Compound | BP blood pressure, duration of variation (t) (narcotized dog; 0.03 mg/kg p.o.) [min] | BP blood pressure, maximum variation from initial value (Δ%) (narcotized dog; 0.03 mg/kg p.o.) [%] | CBF coronary blood flow, duration of variation (t) (narcotized dog; 0.03 mg/kg p.o.) [min] | CBF coronary blood flow, maximum variation from initial value (Δ%) (narcotized dog; 0.03 mg/kg p.o.) [%] | HR heart rate, duration of variation (t) (narcotized dog; 0.03 mg/kg p.o.) [min] | HR heart rate, maximum variation from initial value (Δ%) (narcotized dog; 0.03 mg/kg p.o.) [%] | dp/dt rate of increase in left ventricular pressure, maximum variation from initial value (Δ%) (narcotized dog; 0.03 mg/kg p.o.) [%] | dp/dt, duration of variation (t) (narcotized dog; 0.03 mg/kg p.o.) [min] | BP blood pressure, duration of variation (t) (narcotized dog; 0.1 mg/kg p.o.) [min] | BP blood pressure, maximum variation from initial value (Δ%) (narcotized dog; 0.1 mg/kg p.o.) [%] | CBF coronary blood flow, duration of variation (t) (narcotized dog; 0.1 mg/kg p.o.) [min] | CBF coronary blood flow, maximum variation from initial value (Δ%) (narcotized dog; 0.1 mg/kg p.o.) [%] | HR heart rate, duration of variation (t) (narcotized dog; 0.1 mg/kg p.o.) [min] | HR heart rate, maximum variation from initial value (Δ%) (narcotized dog; 0.1 mg/kg p.o.) | dp/dt rate of increase in left ventricular pressure, maximum variation from initial value (Δ%) (narcotized dog; 0.1 mg/kg p.o.) [%] | dp/dt, duration of variation (t) (narcotized dog; 0.1 mg/kg p.o.) [min]
1 | 100 | 8.18 |  | CC1=C(C(=O)CS(=O)(=O)NC(C)C)C(c2cc(Cl)ccc2Cl)C(C(=O)OC(C)C)=C(C)N1 (centres unmarked) [E, 4-(2,5-dichlorophenyl)-1,4-dihydro-5-[(isopropylsulfamoyl)acetyl]-2,6-dimethylnicotinic acid isopropyl ester] | > 120 | -16 | 70 | 104 | 120 | -14 | 65 | 90 |  |  |  |  |  |  |  | 
2 | 99 | 9.22 |  | CCCOCCOC(=O)C1=C(C)NC(C)=C(C(=O)CS(=O)(=O)NC(C)C)C1c1cccc([N+](=O)[O-])c1 (centres unmarked) [F, 1,4-dihydro-5-[(isopropylsulfamoyl)acetyl]-2,6-dimethyl-4-(3-nitrophenyl)nicotinic acid 2-propoxyethyl ester] | > 60 | -11 | 120 | 56 | 16 | -5 | 34 | 60 |  |  |  |  |  |  |  | 
3 | 100 | 8.17 | 7.52 | CCNS(=O)(=O)CC(=O)C1=C(C)NC(C)=C(C(=O)OC(C)C)C1c1cccc([N+](=O)[O-])c1 (centres unmarked) [A, 5-[(Ethylsulfamoyl)acetyl]-1,4-dihydro-2,6-dimethyl-4-(3-nitrophenyl)nicotinic acid isopropyl ester] | > 60 | -13 | 90 | 98 | 60 | -11 | 37 | 90 |  |  |  |  |  |  |  | 
4 | 100 | 9.09 |  | CC1=C(C(=O)CS(=O)(=O)NC(C)C)C(c2cc([N+](=O)[O-])ccc2Cl)C(C(=O)OC(C)C)=C(C)N1 (centres unmarked) [D, 4-(2-chloro-5-nitrophenyl)-1,4-dihydro-5-[(isopropylsulfamoyl)acetyl]-2,6-dimethylnicotinic acid isopropyl ester] | > 60 | -9 | > 120 | 68 | 60 | -5 | 75 | 90 |  |  |  |  |  |  |  | 
5 | 100 | 8.02 |  | CNS(=O)(=O)CC(=O)C1=C(C)NC(C)=C(C(=O)OCC(F)(F)F)C1c1cccc([N+](=O)[O-])c1 (centres unmarked) [C, 1,4-dihydro-2,6-dimethyl-5-[(methylsulfamoyl)acetyl]-4-(3-nitrophenyl)nicotinic acid 2,2,2-trifluoroethyl ester] |  |  |  |  |  |  |  |  | > 180 | -16 | 180 | 88 | 120 | +2% | 33 | 180
6 | 100 | 8.13 |  | CC1=C(C(=O)CS(=O)(=O)NC(C)C)[C@H](c2cccc([N+](=O)[O-])c2)C(C(=O)O[C@@H](C)c2ccccc2)=C(C)N1 [G, (S)-1,4-dihydro-5-[(isopropylsulfamoyl)acetyl]-2,6-dimethyl-4-(3-nitrophenyl)nicotinic acid (S)-1-phenylethyl ester] | > 120 | -36 | > 120 | 57 | > 120 | -13 | 29 | > 120 |  |  |  |  |  |  |  | 
7 | 100 |  |  | COC(=O)C1=C(C)NC(C)=C(C(=O)OC)C1c1ccccc1[N+](=O)[O-] [nifedipine, reference compound] |  |  |  |  |  |  |  |  |  |  |  |  |  |  |  | 
8 | 94 | 7.80 |  | CNS(=O)(=O)CC(=O)C1=C(C)NC(C)=C(C(=O)OC(C)C)C1c1cccc([N+](=O)[O-])c1 (centres unmarked) [B, 1,4-dihydro-2,6-dimethyl-5-[(methylsulfamoyl)acetyl]-4-(3-nitrophenyl)nicotinic acid isopropyl ester] | > 90 | -8 | > 90 | 120 |  | 0 | 10 | > 90 |  |  |  |  |  |  |  | 
